# Measurements from patent US20100251434A1, “METHOD FOR GROWING SUGARCANE” (SYNGENTA CROP PROTECTION, INC., priority 2007, published 2010).
# Legend:
# Details in all cases: for Culm Diameter / Leaf Width / Plant Height / Tillers: 42 days after planting
# [1] = tested on: sugar cane Variety RB 86-7515; assay: Greenhouse pot test, effect of formulated abamectin on vigour; type: in vivo
# Description: Greenhouse test with sugarcane buds growing in pots were conducted to study the effect of formulated abamectin regarding “vigour”, tillers, plant height, leaf width and culm diameter on sugar cane Variety RB 86-7515.
# 1) carretel with one bud treated with abamectin 2) carretel with one bud treated with abamectin+15% v/v of polymer 3) stalk with 3 buds untreated 4) carretel with one bud untreated 5) carretel with one bud untreated+15% v/v of polymer 6) stalk with 3 buds treated with abamectin.
# Twenty 1 L pots were filled with 16 L of clay soil, 1.6 L of sand and 8 g of nitrogen, 28 g of phosphorus (P2O5) and 16 g of potassium (K2O). Six carretels of 4 cm length with only one bud were planted in each pot (treatments 1, 2, 4 and 5). Two stalks with three buds were planted in each control pot (treatments 3 and 6) to simulate conventional planting. A layer of 3 cm of soil was used to cover the carretels. The carretels of treatments 1, 2 were treated with 200 ml/ha of abamectin, by dipping the carretels in the slurry for 3 min, based on the uptake capacity of carretels. The stalks were treated simulating a furrow application at 100 L.ha^−1 of slurry. Experimental design adopted was randomized complete block with four replications. The pots were maintained with adequate moisture during the test. Evaluations of: plant height, leaf width, culm diameter and number of tillers were done at 20, 30 and 42 days after planting.
# [2] = tested on: sugar cane Variety RB 86-7515; assay: Greenhouse pot test, effect of formulated fipronil on vigour; type: in vivo
# Description: Greenhouse test with sugarcane buds growing in pots were conducted to study the effect of fipronil equivalent to an application rate of 200 g. ha^−1 on “vigour”, evaluating tillers, plant height, leaf width and culm diameter on sugar cane Variety RB 86-7515.
# 1) carretel with one bud treated with fipronil (200 g. ha^−1) 2) carretel with one bud treated with fipronil (200 g. ha^−1)+15% v/v of polymer 3) stalk with 3 buds untreated 4) carretel with one bud untreated 5) carretel with one bud untreated+15% v/v of polymer 6) stalk with 3 buds treated with fipronil (200 g. ha-1).
# Twenty 1 L pots were filled with 16 L of clay soil, 1.6 L of sand and 8 g of nitrogen, 28 g to of phosphorus (P2O5) and 16 g of potassium (K2O). Six carretels of 4 cm length with one bud were planted in each pot (treatments 1, 2, 4 and 5). Two stalks with three buds were planted in each control pot (treatments 3 and 6) to simulate conventional planting. A layer of 3 cm of soil was used to cover the carretels. The carretels of treatments 1 and 2 were treated with 200 g ai.ha^−1 of fipronil, by dipping the carretels in the slurry for 3 min, based on the uptake capacity of carretels. The stalks were treated simulating a furrow application at 100 L.ha^−1 of slurry. Experimental design adopted was randomized complete block with four replications. The pots were maintained with adequate moisture during the test. Evaluations of: plant height, leaf width, culm diameter and number of tillers were done at 20, 30 and 42 days after planting.
# [3] = tested on: sugar cane Variety RB 86-7515; assay: Greenhouse pot test, effect of formulated clothianidin on vigour; type: in vivo
# Description: Greenhouse test with sugarcane buds growing in pots were conducted to study the effect of clothianidin equivalent to an application rate of 200 g ai. ha^−1 on “vigour”, evaluating tillers, plant height, leaf width and culm diameter. This trial was conducted on sugar cane Variety RB 86-7515.
# 1) carretel with one bud treated with clothianidin (200 g ai. ha^−1) 2) carretel with one bud treated with clothianidin (200 g ai. ha^−1)+15% v/v of polymer 3) stalk with 3 buds untreated 4) carretel with one bud untreated+15% v/v of polymer 5) carretel with one bud untreated 6) stalk with 3 buds treated with clothianidin (200 g ai. ha^−1).
# Twenty 1 L pots were filled with 16 L of clay soil, 1.6 L of sand and 8 g of nitrogen, 28 g of phosphorus (P2O5) and 16 g of potassium (K2O). Six carretels of 4 cm length with one bud were planted in each pot (treatments 1, 2, 4 and 5). Two stalks with three buds were planted in each control pot (treatments 3 and 6) to simulate conventional planting. A layer of 3 cm of soil was used to cover the carretels. The carretels of treatments 1 and 2 were treated with 200 g ai.ha^−1 of clothianidin, by dipping the carretels in a slurry for 3 min. The stalks were treated simulating a furrow application at 100 L.ha^−1 of slurry. The pots were maintained with adequate moisture during the test. Evaluations of: plant height, leaf width, culm diameter and number of tillers were performed at 20, 30 and 42 days after planting.
# [4] = tested on: sugar cane Variety RB 86 7515; assay: Greenhouse pot test, effect of formulated imidacloprid on vigour; type: in vivo
# Description: 1) carretel with one bud treated with Imidacloprid (1200 g. ha^−1) 2) carretel with one bud treated with Imidacloprid (1200 g. ha^−1)+15% v/v of polymer 3) stalk with 3 buds untreated 4) carretel with one bud untreated 5) carretel with one bud untreated+15% v/v of polymer 6) stalk with 3 buds treated with Imidacloprid (1200 g. ha^−1).
# Twenty 1 L pots were filled with 16 L of clay soil, 1.6 L of sand and 8 g of nitrogen, 28 g of phosphorus (P2O5) and 16 g of potassium (K2O). Six carretels of 4 cm length with one bud were planted in each pot (treatments 1, 2, 4 and 5). Two stalks with three buds were planted in each control pot (treatments 3 and 6) to simulate conventional planting. A layer of 3 cm of soil was used to cover the carretels. The carretels of treatments 1 and 2 were treated with 1200 g ai.ha^−1 of imidacloprid, by dipping the carretels in the slurry for 3 min, based on the uptake capacity of carretels. The stalks were treated simulating a furrow application at 100 L.ha^−1 of slurry. Experimental design adopted was randomized complete block with four replications. The pots were maintained with adequate moisture during the test. Evaluations of: plant height, leaf width, culm diameter and number of tillers were done at 20, 30 and 42 days after planting.
# [5] = tested on: sugarcane Variety RB 86-7515; assay: Greenhouse pot test, effect of formulated thiamethoxam on vigour; type: in vivo, sugar cane
# Description: This trial was conducted on Variety RB 86-7515.
# [6] = carretel with one bud, dipped in slurry, 100 g ai/ha (0.0 for Untreated + Polymer)
# [7] = stalk with 3 buds, simulated furrow application, 100 g ai/ha
# [8] = carretel with one bud, dipped in slurry, 200 g ai/ha (0.0 for Untreated + polymer)
# [9] = stalk with 3 buds, simulated furrow application, 200 g ai/ha
# [10] = carretel with one bud, dipped in slurry, 1200 g ai/ha (0.0 for Untreated + Polymer)
# [11] = stalk with 3 buds, simulated furrow application, 1200 g ai/ha
# [12] = carretel with one bud, dipped in slurry, 420 g ai/ha (0.0 for Untreated + Polymer)
# [13] = stalk with 3 buds, simulated furrow application, 420 g ai/ha
molecule,measurement,setting,value
abamectin,Culm Diameter,[1]; [6],7.67 mm
same,Leaf Width,[1]; [6],14.58 mm
same,Plant Height,[1]; [6],22.22 cm
same,Tillers,[1]; [6],14 number
same,number of tillers in comparison with the control,[1]; result in words,increase in the number of tillers
same,plant height in comparison with the control,[1]; result in words,decrease in plant height
same,Culm Diameter,[1]; [7],12.25 mm
same,Leaf Width,[1]; [7],20.33 mm
same,Plant Height,[1]; [7],22.54 cm
same,Tillers,[1]; [7],19.5 number
"N#Cc1nn(-c2c(Cl)cc(C(F)(F)F)cc2Cl)c(N)c1[S+]([O-])C(F)(F)F (stereo not drawn) [Fipronil, fipronil]",Culm Diameter,[2]; [8],8.69 mm
same,Leaf Width,[2]; [8],14.16 mm
same,Plant Height,[2]; [8],20.62 cm
same,Tillers,[2]; [8],17.25 number
same,height of the resultant plants in comparison with the control,[2]; result in words,decreased the height of the resultant plants
same,number of tillers in comparison with the control,[2]; result in words,increased the number of tillers
same,Culm Diameter,[2]; [9],10.75 mm
same,Leaf Width,[2]; [9],18.91 mm
same,Plant Height,[2]; [9],22.12 cm
same,Tillers,[2]; [9],16.5 number
"CN/C(=N\[N+](=O)[O-])NCc1cnc(Cl)s1 [Clothianidin, clothianidin]",Culm Diameter,[3]; [8],8.75 mm
same,Leaf Width,[3]; [8],17.17 mm
same,Plant Height,[3]; [8],25.02 cm
same,Tillers,[3]; [8],14.5 number
same,"number of tillers in comparison with the corresponding control (untreated, one-bud)","[3]; result in words, carretels",increased number of tillers
same,"plant height in comparison with the corresponding control (untreated, one-bud)","[3]; result in words, carretels",slight reduction in the plant height
same,Culm Diameter,[3]; [9],11.25 mm
same,Leaf Width,[3]; [9],21.5 mm
same,Plant Height,[3]; [9],22.73 cm
same,Tillers,[3]; [9],17.0 number
O=[N+]([O-])NC1=NCCN1Cc1ccc(Cl)nc1 [Imidacloprid],Culm Diameter,[4]; [10],8.75 mm
same,Leaf Width,[4]; [10],15.91 mm
same,Plant Height,[4]; [10],24.0 cm
same,Tillers,[4]; [10],15.25 number
same,effect on vigour compared with the other active ingredients,[4]; result in words,less pronounced than with the other active ingredients
same,number of tillers in comparison with the control,[4]; result in words,increase in the number of tillers
same,Culm Diameter,[4]; [11],9.49 mm
same,Leaf Width,[4]; [11],20.16 mm
same,Plant Height,[4]; [11],23.49 cm
same,Tillers,[4]; [11],12.0 number
"CN1COCN(Cc2cnc(Cl)s2)/C1=N\[N+](=O)[O-] [Thiamethoxam, thiamethoxam]",Culm Diameter,[5]; [12],7.97 mm
same,Leaf Width,[5]; [12],14.07 mm
same,Plant Height,[5]; [12],23.67 cm
same,Tillers,[5]; [12],15.5 number
same,number of tillers in comparison with the corresponding controls,"[5]; result in words, carretels",increased number of tillers
same,plant height in comparison with the corresponding controls,"[5]; result in words, carretels",reduced plant height
same,"increase in ""quality"" compared with the other treatments","[5]; result in words, not apparent from the listed parameters",increase in “quality” greater than the other treatments
same,Culm Diameter,[5]; [13],10.17 mm
same,Leaf Width,[5]; [13],19.5 mm
same,Plant Height,[5]; [13],26.52 cm
same,Tillers,[5]; [13],14.75 number
